Key:
Assay in all cases: MIC, broth microdilution (CLSI), substance alone or ATB combined with compound at 4 or 8 μg/mL
[1] = system: ECL P99; assay type: cell-based, E. cloacae; conditions: for MIC ATB combined with Example: Example @8 μg/ml
In short: (§1)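 CLSI broth microdilution in cation-adjusted Mueller-Hinton broth, 5·10^5 CFU/mL log-phase inoculum, 16-20 h at 35 °C in ambient air. Fosfomycin assays supplemented with 25 μg/ml glucose-6-phosphate.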

[2] = system: ECO 190317; assay type: cell-based, E. coli; conditions: for MIC ATB combined with Example: Example @8 μg/ml
In short: as §1

[3] = system: ECO UFR39; assay type: cell-based, E. coli; conditions: for MIC ATB combined with Example / MIC ATB combined with Example compound: ECO UFR39; for MIC ATB combined with Example: Example @8 μg/ml; for MIC ATB combined with Example compound: compound @8 μg/ml
In short: as §1

[4] = system: PAE UFR48; assay type: cell-based, P. aeruginosa; conditions: PAE UFR48; for MIC ATB combined with Example: Example @8 μg/ml; for MIC ATB combined with Example compound: compound @8 μg/ml
In short: as §1

[5] = system: PAE UFR90; assay type: cell-based, P. aeruginosa; conditions: PAE UFR90; for MIC ATB combined with Example: Example @8 μg/ml; for MIC ATB combined with Example compound: compound @8 μg/ml
In short: as §1

[6] = system: PAE 105250; assay type: cell-based, P. aeruginosa; conditions: PAE 105250; for MIC ATB combined with Example: Example @8 μg/ml; for MIC ATB combined with Example compound: compound @8 μg/ml
In short: as §1

[7] = system: SPN 49619; assay type: cell-based, S. pneumoniae; conditions: for MIC ATB combined with Example / MIC ATB combined with Example compound: SPN 49619; for MIC ATB combined with Example: Example @8 μg/ml; for MIC ATB combined with Example compound: compound @8 μg/ml
In short: as §1

[8] = system: KPN 6299; assay type: cell-based, K. pneumoniae; conditions: for MIC ATB combined with Example: Example @8 μg/ml
In short: as §1

[9] = system: KPN UFR42; assay type: cell-based, K. pneumoniae; conditions: for MIC ATB combined with Example / MIC ATB combined with Example compound: KPN UFR42; for MIC ATB combined with Example: Example @8 μg/ml; for MIC ATB combined with Example compound: compound @8 μg/ml
In short: as §1

[10] = system: KPN BAA-1898; assay type: cell-based, K. pneumoniae; conditions: for MIC ATB combined with Example: Example @8 μg/ml
In short: as §1

[11] = system: SAU 29213; assay type: cell-based, S. aureus; conditions: for MIC ATB combined with Example / MIC ATB combined with Example compound: SAU 29213; for MIC ATB combined with Example: Example @8 μg/ml; for MIC ATB combined with Example compound: compound @8 μg/ml
In short: as §1

SMILES: O=C1N2CC(n3cccn3)=CC(C2)N1OC(F)(F)C(=O)[O-].[Li+] (stereo not shown) [Example 13, lithium difluoro-(7-oxo-3-pyrazol-1-yl-1,6-diaza-bicyclo[3.2.1]oct-3-en-6-yloxy)-acetate]
- MIC ATB combined with Example ([1]; ATB ATM, ECL P99): 2 µg/mL
- MIC ATB combined with Example ([1]; ATB FEP, ECL P99): <=0.031 μg/mL
- MIC ATB combined with Example ([1]; ATB FOS, ECL P99): 32 µg/mL
- MIC ATB combined with Example ([1]; ATB MEM, ECL P99): <=0.031 μg/mL
- MIC ATB combined with Example ([1]; ATB PIP, ECL P99): 4 µg/mL
- MIC ([1]; Enterobacter cloacae): 16 µg/mL
- MIC ATB combined with Example compound ([1]; MIC of CIP, compound @8 μg/ml, ECL P99): <=0.031 μg/mL
- MIC ATB combined with Example ([2]; ATB ATM, ECO 190317): <0.031 µg/mL
- MIC ATB combined with Example ([2]; ATB FEP, ECO 190317): <0.031 µg/mL
- MIC ATB combined with Example ([2]; ATB FOS, ECO 190317): <0.125 µg/mL
- MIC ATB combined with Example ([2]; ATB MEM, ECO 190317): <0.031 µg/mL
- MIC ATB combined with Example ([2]; ATB PIP, ECO 190317): <0.031 µg/mL
- MIC ([2]; Escherichia coli): 4 µg/mL
- MIC ATB combined with Example compound ([2]; MIC of CIP, compound @8 μg/ml, ECO 190317): <0.031 µg/mL
- MIC ATB combined with Example ([3]; ATB ATM): <0.031 µg/mL
- MIC ATB combined with Example ([3]; ATB FEP): <0.031 µg/mL
- MIC ATB combined with Example ([3]; ATB FOS): <0.125 µg/mL
- MIC ATB combined with Example ([3]; ATB MEM): <=0.031 μg/mL
- MIC ATB combined with Example ([3]; ATB PIP): <0.031 µg/mL
- MIC ([3]; Escherichia coli): 8 µg/mL
- MIC ATB combined with Example compound ([3]; MIC of CIP): <0.031 µg/mL
- MIC ATB combined with Example compound ([3]; MIC of CPO): <0.031 µg/mL
- MIC ATB combined with Example ([4]; ATB ATM): 8 µg/mL
- MIC ATB combined with Example ([4]; ATB FEP): 32 µg/mL
- MIC ATB combined with Example ([4]; ATB FOS): 16 µg/mL
- MIC ATB combined with Example ([4]; ATB MEM): 0.5 µg/mL
- MIC ATB combined with Example ([4]; ATB PIP): 32 µg/mL
- MIC ATB combined with Example compound ([4]; MIC of CIP): 4 µg/mL
- MIC ATB combined with Example compound ([4]; MIC of CPO): >32 µg/mL
- MIC ATB combined with Example ([5]; ATB ATM): 16 µg/mL
- MIC ATB combined with Example ([5]; ATB FEP): 8 µg/mL
- MIC ATB combined with Example ([5]; ATB FOS): 8 µg/mL
- MIC ATB combined with Example ([5]; ATB MEM): 2 µg/mL
- MIC ATB combined with Example ([5]; ATB PIP): >32 µg/mL
- MIC ATB combined with Example compound ([5]; MIC of CIP): 1 µg/mL
- MIC ATB combined with Example compound ([5]; MIC of CPO): 16 µg/mL
- MIC ATB combined with Example ([6]; ATB ATM): 8 µg/mL
- MIC ATB combined with Example ([6]; ATB FEP): 8 µg/mL
- MIC ATB combined with Example ([6]; ATB FOS): >128 µg/mL
- MIC ATB combined with Example ([6]; ATB MEM): 2 µg/mL
- MIC ATB combined with Example ([6]; ATB PIP): 32 µg/mL
- MIC ATB combined with Example compound ([6]; MIC of CIP): 0.063 µg/mL
- MIC ATB combined with Example compound ([6]; MIC of CPO): 16 µg/mL
- MIC ATB combined with Example ([7]; ATB ATM): >32 µg/mL
- MIC ATB combined with Example ([7]; ATB FEP): 0.063 µg/mL
- MIC ATB combined with Example ([7]; ATB FOS): 32 µg/mL
- MIC ATB combined with Example ([7]; ATB MEM): <=0.031 μg/mL
- MIC ATB combined with Example ([7]; ATB PIP): 0.5 µg/mL
- MIC ATB combined with Example compound ([7]; MIC of CIP): 0.5 µg/mL
- MIC ATB combined with Example compound ([7]; MIC of CLI): 0.063 µg/mL
- MIC ATB combined with Example compound ([7]; MIC of CPO): <=0.031 μg/mL
- MIC ATB combined with Example compound ([7]; MIC of DAP): 0.5 µg/mL
- MIC ATB combined with Example compound ([7]; MIC of ERY): 0.063 µg/mL
- MIC ATB combined with Example compound ([7]; MIC of LZD): 1 µg/mL
- MIC ATB combined with Example compound ([7]; MIC of RIF): 0.0078 µg/mL
- MIC ATB combined with Example compound ([7]; MIC of SYN): 0.5 µg/mL
- MIC ATB combined with Example compound ([7]; MIC of VAN): 0.25 µg/mL
- MIC ([7]; Streptococcus pneumoniae): > 32 µg/mL
- MIC ATB combined with Example ([8]; ATB ATM): <=0.031 μg/mL
- MIC ATB combined with Example ([8]; ATB FEP): 0.063 µg/mL
- MIC ATB combined with Example ([8]; ATB FOS): 8 µg/mL
- MIC ATB combined with Example ([8]; ATB MEM): <=0.031 μg/mL
- MIC ATB combined with Example ([8]; ATB PIP): 0.5 µg/mL
- MIC ATB combined with Example compound ([8]; MIC of CIP, compound @8 μg/ml): 32 µg/mL
- MIC ATB combined with Example ([9]; ATB ATM): 0.125 µg/mL
- MIC ATB combined with Example ([9]; ATB FEP): <=0.031 μg/mL
- MIC ATB combined with Example ([9]; ATB FOS): 4 µg/mL
- MIC ATB combined with Example ([9]; ATB MEM): >32 µg/mL
- MIC ATB combined with Example ([9]; ATB PIP): >32 µg/mL
- MIC ([9]; Klebsiella pneumoniae): 16 µg/mL
- MIC ATB combined with Example compound ([9]; MIC of CIP): >32 µg/mL
- MIC ATB combined with Example compound ([9]; MIC of CPO): 32 µg/mL
- MIC ATB combined with Example ([10]; ATB ATM, KPN BAA-1898): 4 µg/mL
- MIC ATB combined with Example ([10]; ATB FEP, KPN BAA-1898): 0.25 µg/mL
- MIC ATB combined with Example ([10]; ATB FOS, KPN BAA-1898): 4 µg/mL
- MIC ATB combined with Example ([10]; ATB MEM, KPN BAA-1898): 0.25 µg/mL
- MIC ATB combined with Example ([10]; ATB PIP, KPN BAA-1898): 32 µg/mL
- MIC ([10]; Klebsiella pneumoniae, BAA1898): 16 µg/mL
- MIC ATB combined with Example compound ([10]; MIC of CIP, compound @8 μg/ml, KPN BAA-1898): 16 µg/mL
- MIC ATB combined with Example ([11]; ATB ATM): >32 µg/mL
- MIC ATB combined with Example ([11]; ATB FEP): 2 µg/mL
- MIC ATB combined with Example ([11]; ATB FOS): 0.5 µg/mL
- MIC ATB combined with Example ([11]; ATB MEM): <=0.031 μg/mL
- MIC ATB combined with Example ([11]; ATB PIP): 1 µg/mL
- MIC ATB combined with Example compound ([11]; MIC of CIP): 0.25 µg/mL
- MIC ATB combined with Example compound ([11]; MIC of CLI): 0.063 µg/mL
- MIC ATB combined with Example compound ([11]; MIC of CPO): 0.5 µg/mL
- MIC ATB combined with Example compound ([11]; MIC of DAP): 1 µg/mL
- MIC ATB combined with Example compound ([11]; MIC of ERY): 0.125 µg/mL
- MIC ATB combined with Example compound ([11]; MIC of LZD): 1 µg/mL
- MIC ATB combined with Example compound ([11]; MIC of RIF): 0.0078 µg/mL
- MIC ATB combined with Example compound ([11]; MIC of SYN): 0.25 µg/mL
- MIC ATB combined with Example compound ([11]; MIC of VAN): 1 µg/mL
- MIC ([11]; Staphylococcus aureus, MSSA): 32 µg/mL

From patent publication US20200024278A1, “COMPOSITION COMPRISING ANTIBIOTIC COMPOUND AND AN HETEROCYCLIC COMPOUND AND THEIR USE IN PREVENTING OR TREATING BACTERIAL INFECTIONS” (MUTABILIS, priority 2016, published 2020)
